Measurements: patent US9180118B2, “Thiadiazolidinone derivatives” (University of Rochester, priority 2006, dated 2015)

Assays:
Assay in all cases: Kinase assay
Type in all cases: biochemical
MAP2K1 (MEK1) = MAP2K1 (MEK1) (Homo sapiens, UniProt Q02750)
Procedure: (§1) Kinase Assays: Single point and titration assays are performed using protocols (or essentially using protocols) know in the art for kinase activity profiling against a battery of kinase targets, including, for example, those specifically delineated herein. Such assays include, for example, those available from commercial sources, contract research laboratories, and the like.

PHKG2 = PHKG2 (Homo sapiens, UniProt P15735)
Procedure: as §1

KIT = KIT (Homo sapiens, UniProt P10721)
Procedure: as §1

MAPK14 (p38 alpha) = MAPK14 (p38 alpha) (Homo sapiens, UniProt Q16539)
Procedure: as §1

PRKCZ (PKC zeta) = PRKCZ (PKC zeta) (Homo sapiens, UniProt Q05513)
Procedure: as §1

PIM1 = PIM1 (Homo sapiens, UniProt P11309)
Procedure: as §1

CDK1/cyclin B = CDK1/cyclin B (Homo sapiens, UniProt P06493)
Procedure: as §1

JAK3 = JAK3 (Homo sapiens, UniProt P52333)
Procedure: as §1

PRKCN (PKD3) = PRKCN (PKD3) (Homo sapiens, UniProt O94806)
Procedure: as §1

FGFR1 = FGFR1 (Homo sapiens, UniProt P11362)
Procedure: as §1

PDGFRB (PDGFR beta) = PDGFRB (PDGFR beta) (Homo sapiens, UniProt P09619)
Procedure: as §1

CHEK1 (CHK1) = CHEK1 (CHK1) (Homo sapiens, UniProt O14757)
Procedure: as §1

NTRK1 (TRKA) = NTRK1 (TRKA) (Homo sapiens, UniProt P04629)
Procedure: as §1

IGF1R = IGF1R (Homo sapiens, UniProt P08069)
Procedure: as §1

MAPKAPK2 = MAPKAPK2 (Homo sapiens, UniProt P49137)
Procedure: as §1

EGFR (ErbB1) = EGFR (ErbB1) (Homo sapiens, UniProt P00533)
Procedure: as §1

PRKCQ (PKC theta) = PRKCQ (PKC theta) (Homo sapiens, UniProt Q04759)
Procedure: as §1

ROCK1 = ROCK1 (Homo sapiens, UniProt Q13464)
Procedure: as §1

TEK (Tie2) = TEK (Tie2) (Homo sapiens, UniProt Q02763)
Procedure: as §1

PRKCG (PKC gamma) = PRKCG (PKC gamma) (Homo sapiens, UniProt P05129)
Procedure: as §1

PRKCH (PKC eta) = PRKCH (PKC eta) (Homo sapiens, UniProt P24723)
Procedure: as §1

KDR (VEGFR2) = KDR (VEGFR2) (Homo sapiens, UniProt P35968)
Procedure: as §1

PRKCE (PKC epsilon) = PRKCE (PKC epsilon) (Homo sapiens, UniProt Q02156)
Procedure: as §1

SYK = SYK (Homo sapiens, UniProt P43405)
Procedure: as §1

LCK = LCK (Homo sapiens, UniProt P06239)
Procedure: as §1

BTK = BTK (Homo sapiens, UniProt Q06187)
Procedure: as §1

ERBB2 (HER2) = ERBB2 (HER2) (Homo sapiens, UniProt P04626)
Procedure: as §1

STK6 (Aurora A) = STK6 (Aurora A) (Homo sapiens, UniProt O14965)
Procedure: as §1

PRKACA (PKA) = PRKACA (PKA) (Homo sapiens, UniProt P17612)
Procedure: as §1

Jak2 = Jak2 (Homo sapiens, UniProt O60674); conditions: TDZD-8 20 μM
Procedure: as §1

INSR = INSR (Homo sapiens, UniProt P06213)
Procedure: as §1

AKT1 (PKB alpha) = AKT1 (PKB alpha) (Homo sapiens, UniProt P31749)
Procedure: as §1

EPHA2 = EPHA2 (Homo sapiens, UniProt P29317)
Procedure: as §1

PRKD1 (PKC mu) = PRKD1 (PKC mu) (Homo sapiens, UniProt Q15139)
Procedure: as §1

RPS6KA3 (RSK2) = RPS6KA3 (RSK2) (Homo sapiens, UniProt P51812)
Procedure: as §1

MAP4K4 (HGK) = MAP4K4 (HGK) (Homo sapiens, UniProt O95819)
Procedure: as §1

CSNK2A1 (CK2 alpha 1) = CSNK2A1 (CK2 alpha 1) (Homo sapiens, UniProt P68400)
Procedure: as §1

RET = RET (Homo sapiens, UniProt P07949)
Procedure: as §1

DYRK3 = DYRK3 (Homo sapiens, UniProt O43781)
Procedure: as §1

PDGFRB (PDGFR beta), sequence (P09619 33-1106): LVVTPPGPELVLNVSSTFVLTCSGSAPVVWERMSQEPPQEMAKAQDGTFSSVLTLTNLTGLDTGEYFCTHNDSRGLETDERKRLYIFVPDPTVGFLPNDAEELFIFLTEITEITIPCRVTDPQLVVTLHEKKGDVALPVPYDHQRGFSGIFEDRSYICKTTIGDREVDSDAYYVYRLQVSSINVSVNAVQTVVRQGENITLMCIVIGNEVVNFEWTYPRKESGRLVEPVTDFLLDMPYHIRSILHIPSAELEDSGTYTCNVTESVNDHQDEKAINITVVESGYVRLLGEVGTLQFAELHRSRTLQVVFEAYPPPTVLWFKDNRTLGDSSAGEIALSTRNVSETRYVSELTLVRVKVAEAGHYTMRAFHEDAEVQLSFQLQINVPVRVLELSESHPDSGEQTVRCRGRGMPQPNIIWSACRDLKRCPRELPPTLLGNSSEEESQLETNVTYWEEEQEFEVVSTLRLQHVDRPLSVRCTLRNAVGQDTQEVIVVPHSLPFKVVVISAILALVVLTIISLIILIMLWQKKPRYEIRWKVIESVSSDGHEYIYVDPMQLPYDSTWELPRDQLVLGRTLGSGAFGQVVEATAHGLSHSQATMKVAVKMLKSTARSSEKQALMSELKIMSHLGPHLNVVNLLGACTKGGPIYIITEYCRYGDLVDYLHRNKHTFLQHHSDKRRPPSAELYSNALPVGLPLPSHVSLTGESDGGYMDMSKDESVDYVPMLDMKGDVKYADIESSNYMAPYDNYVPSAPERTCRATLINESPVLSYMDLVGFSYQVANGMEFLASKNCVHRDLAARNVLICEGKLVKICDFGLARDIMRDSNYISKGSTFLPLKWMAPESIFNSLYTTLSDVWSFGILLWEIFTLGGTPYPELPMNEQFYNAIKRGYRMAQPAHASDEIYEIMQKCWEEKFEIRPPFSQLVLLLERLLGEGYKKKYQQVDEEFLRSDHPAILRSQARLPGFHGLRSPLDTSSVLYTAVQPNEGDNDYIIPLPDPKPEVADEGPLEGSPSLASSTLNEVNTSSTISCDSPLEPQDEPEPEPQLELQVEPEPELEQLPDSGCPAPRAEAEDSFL
KIT, sequence (P10721 26-976): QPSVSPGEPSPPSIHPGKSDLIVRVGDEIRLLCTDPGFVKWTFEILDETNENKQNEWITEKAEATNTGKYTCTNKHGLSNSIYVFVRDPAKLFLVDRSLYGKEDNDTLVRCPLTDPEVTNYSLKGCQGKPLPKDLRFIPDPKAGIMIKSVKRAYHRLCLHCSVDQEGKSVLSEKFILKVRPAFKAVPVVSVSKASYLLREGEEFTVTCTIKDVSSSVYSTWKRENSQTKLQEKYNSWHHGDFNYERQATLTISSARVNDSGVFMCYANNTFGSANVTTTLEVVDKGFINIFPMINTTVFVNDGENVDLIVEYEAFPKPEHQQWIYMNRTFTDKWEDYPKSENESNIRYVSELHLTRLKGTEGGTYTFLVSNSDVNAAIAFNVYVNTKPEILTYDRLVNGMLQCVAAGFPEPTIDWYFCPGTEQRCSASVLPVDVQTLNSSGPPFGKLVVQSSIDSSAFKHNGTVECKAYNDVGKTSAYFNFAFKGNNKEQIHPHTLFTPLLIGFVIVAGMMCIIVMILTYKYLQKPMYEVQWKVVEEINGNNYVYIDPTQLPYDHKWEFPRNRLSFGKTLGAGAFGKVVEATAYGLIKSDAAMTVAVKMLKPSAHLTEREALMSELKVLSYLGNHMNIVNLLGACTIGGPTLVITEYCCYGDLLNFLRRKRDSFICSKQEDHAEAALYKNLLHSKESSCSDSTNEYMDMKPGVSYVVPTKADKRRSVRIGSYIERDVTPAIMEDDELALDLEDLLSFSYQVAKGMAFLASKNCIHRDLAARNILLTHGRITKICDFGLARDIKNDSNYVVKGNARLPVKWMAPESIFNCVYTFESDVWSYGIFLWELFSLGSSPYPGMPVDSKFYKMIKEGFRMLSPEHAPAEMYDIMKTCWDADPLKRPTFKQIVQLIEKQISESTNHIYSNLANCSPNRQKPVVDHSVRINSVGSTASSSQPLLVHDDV
TEK (Tie2), sequence (Q02763 23-1124, species assumed): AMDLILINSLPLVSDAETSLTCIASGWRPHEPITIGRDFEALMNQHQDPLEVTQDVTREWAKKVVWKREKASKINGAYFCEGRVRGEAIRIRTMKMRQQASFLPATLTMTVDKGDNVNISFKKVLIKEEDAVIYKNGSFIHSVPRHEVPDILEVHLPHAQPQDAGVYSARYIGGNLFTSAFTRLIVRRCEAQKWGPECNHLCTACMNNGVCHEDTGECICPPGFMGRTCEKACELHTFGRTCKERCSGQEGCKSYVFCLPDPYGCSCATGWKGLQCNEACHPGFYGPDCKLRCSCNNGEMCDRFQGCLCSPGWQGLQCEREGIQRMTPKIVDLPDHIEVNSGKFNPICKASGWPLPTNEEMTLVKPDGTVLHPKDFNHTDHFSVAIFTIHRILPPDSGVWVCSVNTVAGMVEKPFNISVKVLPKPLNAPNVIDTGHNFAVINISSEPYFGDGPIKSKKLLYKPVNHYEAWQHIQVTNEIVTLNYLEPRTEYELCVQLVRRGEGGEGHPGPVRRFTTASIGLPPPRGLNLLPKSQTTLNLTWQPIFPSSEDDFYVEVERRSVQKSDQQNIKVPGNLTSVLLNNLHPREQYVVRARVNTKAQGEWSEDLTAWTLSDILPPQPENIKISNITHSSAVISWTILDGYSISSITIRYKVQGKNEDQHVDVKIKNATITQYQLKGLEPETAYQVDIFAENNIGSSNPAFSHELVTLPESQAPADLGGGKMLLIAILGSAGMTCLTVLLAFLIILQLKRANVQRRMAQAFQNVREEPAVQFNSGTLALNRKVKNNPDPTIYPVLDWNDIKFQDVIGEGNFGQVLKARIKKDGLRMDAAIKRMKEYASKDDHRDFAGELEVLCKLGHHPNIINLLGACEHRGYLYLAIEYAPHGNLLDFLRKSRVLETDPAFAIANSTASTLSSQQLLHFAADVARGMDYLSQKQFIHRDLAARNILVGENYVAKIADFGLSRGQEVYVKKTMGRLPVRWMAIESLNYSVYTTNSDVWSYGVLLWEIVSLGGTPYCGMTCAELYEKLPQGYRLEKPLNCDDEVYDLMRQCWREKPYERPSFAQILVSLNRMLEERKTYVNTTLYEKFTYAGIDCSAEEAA
PRKCQ (PKC theta), sequence (Q04759 whole entry): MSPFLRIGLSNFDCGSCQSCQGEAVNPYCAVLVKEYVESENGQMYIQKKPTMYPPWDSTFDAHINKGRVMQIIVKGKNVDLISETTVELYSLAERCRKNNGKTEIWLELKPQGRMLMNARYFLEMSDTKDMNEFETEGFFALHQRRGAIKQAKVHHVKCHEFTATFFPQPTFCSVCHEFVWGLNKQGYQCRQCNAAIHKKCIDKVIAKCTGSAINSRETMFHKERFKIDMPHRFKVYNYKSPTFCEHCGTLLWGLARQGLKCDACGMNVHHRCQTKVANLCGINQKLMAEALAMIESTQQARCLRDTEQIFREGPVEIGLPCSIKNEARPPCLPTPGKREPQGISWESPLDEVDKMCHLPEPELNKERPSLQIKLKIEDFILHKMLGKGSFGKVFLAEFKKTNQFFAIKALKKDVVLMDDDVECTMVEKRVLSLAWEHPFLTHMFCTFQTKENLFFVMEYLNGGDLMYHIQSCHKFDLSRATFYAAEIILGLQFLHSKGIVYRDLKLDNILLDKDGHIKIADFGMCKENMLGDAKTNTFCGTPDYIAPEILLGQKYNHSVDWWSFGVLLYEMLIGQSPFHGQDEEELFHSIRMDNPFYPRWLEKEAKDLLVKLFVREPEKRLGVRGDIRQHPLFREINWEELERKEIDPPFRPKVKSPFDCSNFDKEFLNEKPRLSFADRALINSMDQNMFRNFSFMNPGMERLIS
RPS6KA3 (RSK2), sequence (P51812 whole entry, species assumed): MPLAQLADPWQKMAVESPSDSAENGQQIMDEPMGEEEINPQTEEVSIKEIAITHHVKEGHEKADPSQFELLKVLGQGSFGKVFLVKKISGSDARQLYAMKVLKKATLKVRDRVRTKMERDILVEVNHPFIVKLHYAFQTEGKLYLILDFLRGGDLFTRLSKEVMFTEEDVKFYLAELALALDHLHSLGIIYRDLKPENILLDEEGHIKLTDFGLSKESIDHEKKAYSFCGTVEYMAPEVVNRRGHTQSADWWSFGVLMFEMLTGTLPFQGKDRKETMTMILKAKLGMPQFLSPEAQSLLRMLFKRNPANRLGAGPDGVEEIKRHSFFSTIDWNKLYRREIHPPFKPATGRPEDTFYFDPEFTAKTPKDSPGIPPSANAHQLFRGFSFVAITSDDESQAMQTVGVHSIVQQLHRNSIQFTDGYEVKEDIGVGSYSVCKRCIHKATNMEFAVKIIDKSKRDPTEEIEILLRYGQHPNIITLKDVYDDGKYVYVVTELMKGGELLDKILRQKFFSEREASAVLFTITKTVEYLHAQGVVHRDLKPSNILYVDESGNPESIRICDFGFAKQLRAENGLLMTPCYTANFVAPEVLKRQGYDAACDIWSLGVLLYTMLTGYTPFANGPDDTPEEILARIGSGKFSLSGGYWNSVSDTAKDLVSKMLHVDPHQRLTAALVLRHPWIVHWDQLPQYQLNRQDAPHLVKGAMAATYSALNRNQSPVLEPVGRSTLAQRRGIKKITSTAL
PIM1, sequence (P11309 whole entry): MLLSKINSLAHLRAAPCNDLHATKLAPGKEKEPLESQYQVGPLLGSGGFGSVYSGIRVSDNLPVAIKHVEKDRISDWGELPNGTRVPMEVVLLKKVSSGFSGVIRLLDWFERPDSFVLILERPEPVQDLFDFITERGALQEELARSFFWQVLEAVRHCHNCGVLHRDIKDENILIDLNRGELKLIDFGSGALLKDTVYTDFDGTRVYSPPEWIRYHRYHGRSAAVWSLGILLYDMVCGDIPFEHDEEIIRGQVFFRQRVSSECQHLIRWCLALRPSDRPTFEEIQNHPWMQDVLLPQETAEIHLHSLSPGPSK

Cn1sc(=O)n(Cc2ccccc2)c1=O [TDZD-8, 4-benzyl-2-methyl-1,2,4-thiadiazolidine-3,5-dione]
inhibition at 20 µM (MAP2K1 (MEK1)): 80%
inhibition at 20 µM (PHKG2): 80%
inhibition at 20 µM (KIT): -6%
% Inhibition mean (KIT; TDZD-8 20 μM): little to no inhibition
inhibition at 20 µM (MAPK14 (p38 alpha)): 97%
inhibition at 20 µM (PRKCZ (PKC zeta)): 100%
inhibition at 20 µM (PIM1): 95%
inhibition at 20 µM (CDK1/cyclin B): 15%
inhibition at 20 µM (JAK3): -1%
inhibition at 20 µM (PRKCN (PKD3)): 94%
inhibition at 20 µM (FGFR1): 1%
inhibition at 20 µM (PDGFRB (PDGFR beta)): -4%
% Inhibition mean (PDGFRB (PDGFR beta); TDZD-8 20 μM): little to no inhibition
inhibition at 20 µM (CHEK1 (CHK1)): 87%
inhibition at 20 µM (NTRK1 (TRKA)): -9%
inhibition at 20 µM (IGF1R): -2%
inhibition at 20 µM (MAPKAPK2): 99%
inhibition at 20 µM (EGFR (ErbB1)): 1%
inhibition at 20 µM (PRKCQ (PKC theta)): 101%
inhibition at 20 µM (ROCK1): 113%
inhibition at 20 µM (TEK (Tie2)): 9%
% Inhibition mean (TEK (Tie2); TDZD-8 20 μM): little to no inhibition
inhibition at 20 µM (PRKCG (PKC gamma)): 103%
inhibition at 20 µM (PRKCH (PKC eta)): 104%
inhibition at 20 µM (KDR (VEGFR2)): 100%
inhibition at 20 µM (PRKCE (PKC epsilon)): 99%
inhibition at 20 µM (SYK): 99%
inhibition at 20 µM (LCK): -9%
inhibition at 20 µM (BTK): 72%
inhibition at 20 µM (ERBB2 (HER2)): 12%
inhibition at 20 µM (STK6 (Aurora A)): 99%
inhibition at 20 µM (PRKACA (PKA)): 18%
inhibition (Jak2): little to no inhibition
inhibition at 20 µM (INSR): 9%
inhibition at 20 µM (AKT1 (PKB alpha)): 102%
inhibition at 20 µM (EPHA2): 3%
inhibition at 20 µM (PRKD1 (PKC mu)): 97%
inhibition at 20 µM (RPS6KA3 (RSK2)): 101%
inhibition at 20 µM (MAP4K4 (HGK)): 99%
inhibition at 20 µM (CSNK2A1 (CK2 alpha 1)): 27%
inhibition at 20 µM (RET): 34%
inhibition at 20 µM (DYRK3): 85%
